Measurements published in ChEMBL document CHEMBL2380224, “Fragment-based ligand design of novel potent inhibitors of tankyrases” (J Med Chem, 2013).

Assays:
[1] = target: Poly [ADP-ribose] polymerase 2 (Homo sapiens, UniProt Q9UGN5); assay: Inhibition of PARP2 (unknown origin)
[2] = target: Poly [ADP-ribose] polymerase 1 (Homo sapiens, UniProt P09874); assay: Inhibition of PARP1 (unknown origin)
[3] = target: Protein mono-ADP-ribosyltransferase PARP6 (Homo sapiens, UniProt Q2NL67); assay: Inhibition of PARP6 (unknown origin)
Protein mono-ADP-ribosyltransferase PARP6, sequence (Q2NL67 whole entry, the tested form may be a part): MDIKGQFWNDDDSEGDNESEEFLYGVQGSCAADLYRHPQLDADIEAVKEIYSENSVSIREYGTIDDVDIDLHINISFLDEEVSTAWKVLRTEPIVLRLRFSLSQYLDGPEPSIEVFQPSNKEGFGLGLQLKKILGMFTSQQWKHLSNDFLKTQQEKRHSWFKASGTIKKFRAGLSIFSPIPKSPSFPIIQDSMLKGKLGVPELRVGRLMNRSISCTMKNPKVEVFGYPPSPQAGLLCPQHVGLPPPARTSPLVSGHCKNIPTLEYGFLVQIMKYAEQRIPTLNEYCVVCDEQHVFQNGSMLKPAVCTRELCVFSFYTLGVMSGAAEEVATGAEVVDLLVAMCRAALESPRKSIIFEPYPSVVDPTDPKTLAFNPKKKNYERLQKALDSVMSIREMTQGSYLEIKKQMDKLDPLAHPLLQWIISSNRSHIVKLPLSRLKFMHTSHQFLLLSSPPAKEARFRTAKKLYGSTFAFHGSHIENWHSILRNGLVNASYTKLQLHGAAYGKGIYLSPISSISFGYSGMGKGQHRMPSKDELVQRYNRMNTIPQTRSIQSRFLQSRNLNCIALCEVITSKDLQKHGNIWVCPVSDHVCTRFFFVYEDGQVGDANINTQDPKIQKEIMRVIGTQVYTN

Homo sapiens = species on record: Homo sapiens; assay: Selectivity ratio of IC50 for PARP6 (unknown origin) to IC50 for TNKS2 PARP domain (947 to 1162) (unknown origin)

Poly [ADP-ribose] polymerase 2, sequence (Q9UGN5 whole entry): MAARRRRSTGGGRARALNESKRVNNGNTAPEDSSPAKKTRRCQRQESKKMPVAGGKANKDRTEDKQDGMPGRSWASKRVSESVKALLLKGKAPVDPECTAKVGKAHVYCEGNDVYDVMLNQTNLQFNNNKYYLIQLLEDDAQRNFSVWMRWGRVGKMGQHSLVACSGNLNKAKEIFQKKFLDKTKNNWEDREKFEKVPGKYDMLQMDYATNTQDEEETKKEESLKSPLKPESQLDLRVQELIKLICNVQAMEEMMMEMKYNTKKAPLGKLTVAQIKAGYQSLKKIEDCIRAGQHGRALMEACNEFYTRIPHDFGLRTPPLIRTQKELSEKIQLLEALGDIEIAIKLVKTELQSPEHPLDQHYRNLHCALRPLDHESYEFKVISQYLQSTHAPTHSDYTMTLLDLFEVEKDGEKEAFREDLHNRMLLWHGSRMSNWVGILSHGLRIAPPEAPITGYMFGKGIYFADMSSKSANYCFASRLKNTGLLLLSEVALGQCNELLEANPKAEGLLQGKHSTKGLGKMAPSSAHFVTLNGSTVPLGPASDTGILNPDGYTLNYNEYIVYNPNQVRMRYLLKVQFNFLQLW
Poly [ADP-ribose] polymerase 1, sequence (P09874 whole entry): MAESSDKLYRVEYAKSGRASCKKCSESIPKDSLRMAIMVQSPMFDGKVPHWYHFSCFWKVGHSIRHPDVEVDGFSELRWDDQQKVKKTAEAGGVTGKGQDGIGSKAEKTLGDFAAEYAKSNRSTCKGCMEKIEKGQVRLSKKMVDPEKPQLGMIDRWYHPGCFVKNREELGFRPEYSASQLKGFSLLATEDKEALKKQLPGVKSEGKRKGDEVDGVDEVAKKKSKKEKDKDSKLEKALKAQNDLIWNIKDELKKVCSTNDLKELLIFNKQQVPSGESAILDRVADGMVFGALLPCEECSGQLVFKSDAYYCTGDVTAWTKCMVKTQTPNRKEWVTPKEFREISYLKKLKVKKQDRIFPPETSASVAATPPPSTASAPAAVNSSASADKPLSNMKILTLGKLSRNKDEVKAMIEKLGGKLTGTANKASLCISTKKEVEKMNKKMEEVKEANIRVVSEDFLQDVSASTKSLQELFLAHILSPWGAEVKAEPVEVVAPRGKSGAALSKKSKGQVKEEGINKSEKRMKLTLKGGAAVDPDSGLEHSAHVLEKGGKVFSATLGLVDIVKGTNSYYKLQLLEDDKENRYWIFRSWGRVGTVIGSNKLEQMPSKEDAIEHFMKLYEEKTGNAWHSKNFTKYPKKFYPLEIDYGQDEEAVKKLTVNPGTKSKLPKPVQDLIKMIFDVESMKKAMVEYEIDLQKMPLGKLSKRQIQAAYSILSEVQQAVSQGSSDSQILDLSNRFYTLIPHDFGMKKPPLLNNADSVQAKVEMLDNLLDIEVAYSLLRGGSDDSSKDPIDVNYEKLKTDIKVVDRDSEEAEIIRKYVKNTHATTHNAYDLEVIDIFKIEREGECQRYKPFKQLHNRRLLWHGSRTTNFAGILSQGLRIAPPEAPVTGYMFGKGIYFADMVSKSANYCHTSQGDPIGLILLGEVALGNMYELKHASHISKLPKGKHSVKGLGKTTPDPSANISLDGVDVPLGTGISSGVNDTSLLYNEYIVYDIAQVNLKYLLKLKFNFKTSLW

IC50 [1]: > 10 µM
IC50 [2]: > 10 µM
IC50 [3]: > 10 µM
Ratio IC50 (Homo sapiens): > 100
Compound: Cc1cc(=O)[nH]c2cc(-c3ccccc3F)ccc12
